Data on three molecules can be found in ChEMBL document CHEMBL4385611, “Difluoromethylene at the γ-Lactam α-Position Improves 11-Deoxy-8-aza-PGE1 Series EP4 Receptor Binding and Activity: 11-Deoxy-10,10-difluoro-8-aza-PGE1 Analog (KMN-159) as a Potent EP4 Agonist” (J Med Chem, 2019).

SMILES strings stand for the structures. Some results are limits rather than exact numbers.

The target in test [1] is T1, Prostaglandin E2 receptor EP2 subtype (Homo sapiens, UniProt P43116). Nature of the test: Displacement of [3H]PGE2 from human recombinant EP2 receptor expressed in HEK293 cell membranes after 120 mins by liquid scintillation counting method. (In a radioligand displacement assay an active substance lowers the binding of a labelled ligand.)
T1 sequence (P43116 whole entry): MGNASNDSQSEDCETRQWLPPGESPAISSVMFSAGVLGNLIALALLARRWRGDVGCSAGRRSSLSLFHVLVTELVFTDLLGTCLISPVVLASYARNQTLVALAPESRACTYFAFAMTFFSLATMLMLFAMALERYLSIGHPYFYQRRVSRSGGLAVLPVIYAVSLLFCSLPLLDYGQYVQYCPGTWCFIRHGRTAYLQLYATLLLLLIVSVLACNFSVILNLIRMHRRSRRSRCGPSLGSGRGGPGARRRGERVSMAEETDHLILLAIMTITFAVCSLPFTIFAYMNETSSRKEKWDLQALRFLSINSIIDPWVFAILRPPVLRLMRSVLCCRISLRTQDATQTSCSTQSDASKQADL
Test [2] deals with T2, Prostaglandin E2 receptor EP3 subtype (Homo sapiens, UniProt P43115).
T2 sequence (P43115 whole entry): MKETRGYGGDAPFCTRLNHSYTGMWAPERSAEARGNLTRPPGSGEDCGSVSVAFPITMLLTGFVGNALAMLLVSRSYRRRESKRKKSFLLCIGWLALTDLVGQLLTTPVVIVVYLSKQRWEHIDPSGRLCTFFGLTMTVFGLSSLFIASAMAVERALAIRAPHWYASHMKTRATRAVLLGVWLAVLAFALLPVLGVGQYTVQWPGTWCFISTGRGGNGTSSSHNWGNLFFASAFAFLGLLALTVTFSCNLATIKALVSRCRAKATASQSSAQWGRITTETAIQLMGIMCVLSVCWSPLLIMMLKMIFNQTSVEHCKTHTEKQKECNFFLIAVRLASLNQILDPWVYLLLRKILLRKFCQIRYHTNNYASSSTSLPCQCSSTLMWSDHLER
Nature of the test: Displacement of [3H]PGE2 from human recombinant EP3 receptor expressed in HEK293 cell membranes after 120 mins by liquid scintillation counting method.

Test [3] addresses T3, Prostaglandin E2 receptor EP4 subtype (Homo sapiens, UniProt P35408). Put plainly: Displacement of [3H]PGE2 from human recombinant EP4 receptor expressed in HEK293 cell membranes after 120 mins by liquid scintillation counting method.
Test [4] deals with T1, Prostaglandin E2 receptor EP2 subtype. Put plainly: Agonist activity at human EP2 receptor expressed in HEK293T/17 cells assessed as increase in intracellular cAMP level incubated for 30 mins by ELISA. It counts as functional, cell-based. (In general: Cyclic AMP is a second messenger, typically raised through Gs and lowered through Gi signalling.)
Test [5] concerns the target T3, Prostaglandin E2 receptor EP4 subtype. Nature of the test: Agonist activity at human EP4 receptor expressed in HEK293T/17 cells assessed as increase in GalphaS-mediated CREB activation measured after 6 to 24 hrs by SEAP reporter gene-based chemiluminescence assay. It counts as functional, cell-based. Background: In a reporter assay the amount or activity of a reporter protein is the signal.

Test [6] has as its target T1, Prostaglandin E2 receptor EP2 subtype. Put plainly: Agonist activity at human EP2 receptor expressed in HEK293T/17 cells assessed as increase in GalphaS-mediated CREB activation measured after 6 to 24 hrs by SEAP reporter gene-based chemiluminescence assay. It is filed as functional, cell-based.
Test [7] has the same target. Nature of the test: Agonist activity at human EP2 receptor expressed in HEK293T/17 cells assessed as increase in intracellular cAMP level at 10 uM incubated for 30 mins by ELISA relative to control. It counts as functional, cell-based.
Test [8] shares this target. Put plainly: Agonist activity at human EP2 receptor expressed in HEK293T/17 cells assessed as increase in GalphaS-mediated CREB activation at 10 uM measured after 6 to 24 hrs by SEAP reporter gene-based chemiluminescence assay relative to control. It is filed as functional, cell-based.
In test [9] the target is T3, Prostaglandin E2 receptor EP4 subtype. Put plainly: Agonist activity at human EP4 receptor expressed in HEK293T/17 cells assessed as increase in intracellular cAMP level incubated for 30 mins by ELISA. It is filed as functional, cell-based.

T3 sequence (P35408 whole entry): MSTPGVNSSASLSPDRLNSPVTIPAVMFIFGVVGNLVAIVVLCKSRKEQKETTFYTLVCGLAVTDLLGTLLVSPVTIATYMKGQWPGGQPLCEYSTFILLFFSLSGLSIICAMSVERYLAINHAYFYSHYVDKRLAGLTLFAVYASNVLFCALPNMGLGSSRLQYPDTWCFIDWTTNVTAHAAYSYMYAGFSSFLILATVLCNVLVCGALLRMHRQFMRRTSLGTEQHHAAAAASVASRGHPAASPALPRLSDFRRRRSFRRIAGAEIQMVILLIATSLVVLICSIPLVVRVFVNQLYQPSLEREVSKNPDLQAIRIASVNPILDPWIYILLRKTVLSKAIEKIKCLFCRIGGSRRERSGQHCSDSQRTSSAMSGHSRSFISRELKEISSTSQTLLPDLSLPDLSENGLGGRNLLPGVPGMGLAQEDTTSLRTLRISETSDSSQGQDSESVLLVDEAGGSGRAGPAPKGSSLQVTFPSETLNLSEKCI

For the molecule `CCCCC[C@H](O)/C=C/[C@H]1CCC(=O)N1CCCCCCC(=O)O`, the Ki (as a rule, a measure of affinity in units of concentration, obtained from inhibition or displacement) came out at 1460 nM in test [1], 1170 nM in test [2] and 1.61 nM in test [3]. The concentration for a half-maximal effect (EC50) (usually the concentration needed to bring the measured effect to its halfway point) was greater than 10000 nM in test [4], 0.065 nM in test [5] and greater than 10000 nM in test [6]. The Activity in test [7] and in test [8] was less than 50% each time.
For the molecule `CCCCC[C@H](O)/C=C/[C@H]1CC(F)(F)C(=O)N1CCCCCCC(=O)O`, the values for the Ki in test [1], in test [2] and in test [3] were 329 nM, 350 nM and 0.2 nM, respectively. For the same molecule, the EC50 in test [9] is 0.348 nM; in test [4], greater than 10000 nM; in test [5], 0.021 nM; in test [6] it was 2270 nM. Moreover, the Activity in test [7] is less than 50%.
For the molecule `COCc1cccc(C[C@H](O)/C=C/[C@H]2[C@H](O)CC(=O)[C@@H]2CCSCCCC(=O)O)c1`, the Ki in test [3] was 0.396 nM. Besides, the concentration giving a half-maximal response (EC50) is 10000 nM in test [4], 0.01 nM in test [5] and 610 nM in test [6]. The Activity in [7] was less than 50%.
